What follows are compounds tested against T1, S1P1 receptor (Homo sapiens, UniProt P21453) (assay: 35S-GTPγS binding assay using membrane preparation of CHO cell stably expressing S1P1 receptor). Settings: agonist activity.
T1 construct: expressed in transfected cells; membrane preparation
T1 sequence (P21453 whole entry): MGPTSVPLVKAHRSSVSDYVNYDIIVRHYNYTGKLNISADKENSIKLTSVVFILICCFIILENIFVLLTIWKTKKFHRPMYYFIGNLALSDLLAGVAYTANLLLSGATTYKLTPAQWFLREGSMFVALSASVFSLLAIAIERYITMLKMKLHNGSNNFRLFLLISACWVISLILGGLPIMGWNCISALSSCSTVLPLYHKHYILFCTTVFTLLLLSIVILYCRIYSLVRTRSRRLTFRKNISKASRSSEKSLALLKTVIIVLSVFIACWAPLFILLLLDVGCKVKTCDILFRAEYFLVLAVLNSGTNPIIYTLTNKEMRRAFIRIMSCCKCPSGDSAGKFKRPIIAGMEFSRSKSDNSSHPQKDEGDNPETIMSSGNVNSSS
Assay type: biochemical
Protocol: ^35s-GTPγS binding assay using membrane preparation of CHO cell stably expressing S1P1 receptor
A G protein-GTPγS binding test associated with a ligand was performed by using a membrane preparation which was obtained from a CHO cell which stably overexpressed S1P1 receptor. In a 96 well-micro-titer dish, the produced membrane protein and a compound which was diluted with a solvent such as DMSO or sphingosine-1-phosphate in various concentrations was incubated in a solution containing 20 mM of Tris-Cl (pH7.5), 100 mM of NaCl, 10 mM of MgCl2, 5μM of GDP, 0.1% of BSA, and […] of ^35s-GTPγS (specific radioactivity, 1250 Ci mmol). The binding was performed for 1 or more hours at room temperature, and the membrane was harvested on a GF/B filter plate by using a Millipore's MultiScreen Separation System to end the binding. After the filter plate was dried for 30 or more minutes, 25 μL of MicroScint-20 was added to each well, and the binding was measured by using the TopCount.
For the agonist activity of compound, the value of a well which a solvent was added to was set to a control value and compared with an increment of an evaluation compound-added well, so that the increment of each concentration of the compound was obtained. EC50 value was calculated under the definition that the value is an agonist concentration required to provide 50% of the maximum increment thereof. […]
Work on Cc1cc(-c2nc(-c3ccc(CNCCC(=O)O)cc3)no2)ccc1-c1ccc(F)cc1 [Example 75] yielded an EC50 of 0.34 nM. With O=C(O)CCNCc1ccc(-c2noc(-c3ccc(-c4ccccc4OC(F)(F)F)c(C(F)(F)F)c3)n2)cc1 [Example 100] the EC50 was 1.7 nM. O=C(O)CCNCc1ccc(-c2noc(-c3ccc(-c4ccc(F)cc4)cc3)n2)cc1 [Example 69] was tested, and the EC50 was 14 nM. Cc1cc(-c2nc(-c3ccc(CNCCC(=O)O)cc3)no2)ccc1C1CCCC1 [Example 91] was tested, and the EC50 was 0.25 nM. Cc1cc(-c2nc(-c3ccc(CNCCC(=O)O)cc3)no2)ccc1-c1ccsc1 [Example 113] showed an EC50 of 0.07 nM. Compound O=C(O)[C@@H]1CC=C[C@@H](NCc2ccc(OCc3cc(-c4ccccc4)c(C(F)(F)F)s3)cc2)C1 [Example 24] has an EC50 of 87 nM. Compound O=C(O)CCNCc1ccc(-c2noc(-c3ccc(-c4ccccc4C(F)(F)F)c(C(F)(F)F)c3)n2)cc1 [Example 99] has an EC50 of 1.3 nM. O=C(O)[C@@H]1C[C@H](O)[C@H](NCc2ccc(OCc3cc(-c4ccccc4)c(C(F)(F)F)s3)cc2)C1 [Example 16] was tested, and the EC50 was 94 nM. Work on O=C(O)CCNCc1ccc(-c2noc(-c3ccc(-c4ccccc4F)c(C(F)(F)F)c3)n2)cc1 [Example 98] yielded an EC50 of 0.37 nM. Work on Cc1cc(-c2nc(-c3ccc(CNCCC(=O)O)cc3)no2)ccc1-c1ccccc1Cl [Example 111] yielded an EC50 of 0.17 nM. Cc1cc(-c2nc(-c3ccc(CNCCC(=O)O)cc3)no2)ccc1C1CCCCC1 [Example 92] showed an EC50 of 0.2 nM. Cc1cc(-c2nc(-c3ccc(CNCCC(=O)O)cc3)no2)ccc1-c1ccccc1C(C)C [Example 118] gave an EC50 of 0.45 nM. In the case of CCc1cc(-c2nc(-c3ccc(CNCCC(=O)O)cc3)no2)ccc1-c1ccccc1C#N [Example 102], the EC50 is reported as 0.41 nM. O=C(O)[C@H]1CC[C@@H](NCc2ccc(OCc3cc(-c4ccccc4)c(C(F)(F)F)s3)cc2)CC1 [Example 13] showed an EC50 of 234 nM. For CCc1cc(-c2nc(-c3ccc(CNCCC(=O)O)cc3)no2)ccc1-c1ccccc1 [Example 101], the EC50 was 0.41 nM. With O=C(O)CCNCc1ccc(OCc2cc(-c3ccccc3)c(C(F)(F)F)s2)c(F)c1 [Example 152] the EC50 was 6.4 nM. Work on Cc1cc(-c2nc(-c3ccc(CNCCC(=O)O)cc3)no2)ccc1-c1ccco1 [Example 116] yielded an EC50 of 1.5 nM. Compound Cc1cc(-c2nc(-c3ccc(CNCCC(=O)O)cc3)no2)ccc1-c1cccs1 [Example 112] has an EC50 of 0.34 nM. Work on O=C(O)[C@@H]1CC[C@@H](NCc2ccc(-c3noc(-c4cc(-c5ccccc5)c(C(F)(F)F)s4)n3)cc2)C1 [Example 138] yielded an EC50 of 21 nM. Compound Cc1cc(-c2nc(-c3ccc(CNCCC(=O)O)cc3)no2)ccc1-c1ccccc1OC(F)(F)F [Example 114] has an EC50 of 0.19 nM. Cc1cc(CN[C@H]2C[C@H](C(=O)O)C2)ccc1-c1noc(-c2ccc(CC(C)C)cc2)n1 [Example 146, (1R,3R)-3-(4-(5-(4-isobutylphenyl)-1,2,4,-oxadiazol-3-yl)-3-methylbenzylamino)cyclobutanecarboxylic acid] was tested, and the EC50 was 4.5 nM. Work on O=C(O)CCNCc1ccc(-c2noc(-c3ccc(-c4cccc(F)c4)cc3)n2)cc1 [Example 68] yielded an EC50 of 5.5 nM. Work on O=C(O)CCNCc1ccc(-c2noc(-c3cnc(OC4CCCC4)c(Cl)c3)n2)cc1 [Example 44] yielded an EC50 of 13 nM. O=C(O)CCNCc1ccc(-c2noc(-c3ccc(-c4ccccc4F)s3)n2)cc1 [Example 120] was tested, and the EC50 was 3.6 nM. In the case of O=C(O)CCNCc1ccc(-c2noc(-c3ccc(-c4ccc(C(F)(F)F)cc4)cc3)n2)cc1 [Example 57], the EC50 is reported as 69 nM. For O=C(O)CCNCc1ccc(-c2noc(-c3ccc(-c4ccccc4)cc3)n2)cc1 [Example 48], the EC50 was 3 nM. CC(C)Oc1ccc(-c2nc(-c3ccc(CNCCC(=O)O)cc3)no2)cc1C(F)(F)F [Example 49] showed an EC50 of 0.6 nM. With O=C(O)CCNCc1ccc(OCc2ccc3c(cnn3Cc3ccccc3)c2)cc1 [Example 37, 3-(4-(1-benzyl-1H-indazol-5-yl)methoxy)benzylaminopropanoic acid] the EC50 was 64 nM. O=C(O)[C@H]1CC[C@@H](NCc2ccc(OCc3cc(-c4ccccc4)c(C(F)(F)F)s3)cc2)C1 [Example 18] gave an EC50 of 251 nM. Cc1cc(-c2nc(-c3ccc(CNCCC(=O)O)cc3)no2)ccc1-c1cscc1C [Example 115] was tested, and the EC50 was 0.04 nM. Cc1cc(-c2nc(-c3ccc(CN[C@@H]4CC[C@@H](C(=O)O)C4)cc3)no2)ccc1-c1ccccc1 [Example 142] showed an EC50 of 6.7 nM. O=C(O)CCNCc1ccc(-c2noc(-c3ccc(-c4ncccc4C(F)(F)F)cc3)n2)cc1 [Example 41] gave an EC50 of 25 nM. Work on O=C(O)CCNCc1ccc(OCc2cc(-c3ccccc3)c(C(F)(F)F)s2)cc1Cl [Example 149] yielded an EC50 of 4.5 nM. Cc1cc(CNCCC(=O)O)ccc1-c1noc(-c2ccc(CC(C)C)cc2)n1 [Example 144] showed an EC50 of 0.27 nM. O=C(O)CCNCc1ccc(-c2noc(-c3cc(-c4ccccc4)c(C(F)(F)F)s3)n2)s1 [Example 124] was tested, and the EC50 was 0.2 nM. Cc1cc(-c2ccccc2F)ccc1-c1nc(-c2ccc(CNCCC(=O)O)cc2)no1 [Example 58] showed an EC50 of 56 nM. Compound Cc1cc(-c2nc(-c3ccc(CNCCC(=O)O)cc3)no2)ccc1-c1ccccc1C(F)(F)F [Example 86] has an EC50 of 0.31 nM. Cc1cc(-c2ccccc2)ccc1-c1nc(-c2ccc(CNCCC(=O)O)cc2)no1 [Example 55] gave an EC50 of 34 nM. N#Cc1cc(-c2nc(-c3ccc(CNCCC(=O)O)cc3)no2)ccc1-c1ccccc1F [Example 89] showed an EC50 of 0.17 nM. Compound O=C(O)CCNCc1ccc(-c2noc(-c3ccc(/C=C/C(F)(F)F)cc3)n2)cc1 [Example 103] has an EC50 of 3.9 nM. In the case of COc1cc(OCc2cc(-c3ccccc3)c(C(F)(F)F)s2)ccc1CNCCC(=O)O [Example 150], the EC50 is reported as 37 nM. CC(C)COc1ccc(-c2nc(-c3ccc(CN[C@H]4C[C@H](C(=O)O)C4)cc3)no2)cc1C(F)(F)F [Example 136] gave an EC50 of 4 nM. Compound Cc1ccccc1-c1ccc(-c2nc(-c3ccc(CNCCC(=O)O)cc3)no2)cc1C [Example 110] has an EC50 of 0.35 nM. Work on O=C(O)CCNCc1ccc(-c2noc(-c3ccc(-c4ccccn4)cc3)n2)cc1 [Example 50] yielded an EC50 of 42 nM. O=C(O)[C@@H]1C[C@@H](O)[C@H](NCc2ccc(OCc3cc(-c4ccccc4)c(C(F)(F)F)s3)cc2)C1 [Example 15] gave an EC50 of 121 nM. Compound CC(C)Cc1ccc(-c2nc(-c3ccc(CNCCC(=O)O)s3)no2)cc1 [Example 128] has an EC50 of 16 nM. O=C(O)C(CO)NCc1ccc(OCc2cc(-c3ccccc3)c(C(F)(F)F)s2)cc1 (centres unmarked) [Example 27] showed an EC50 of 370 nM. Work on N#Cc1ccccc1-c1ccc(-c2nc(-c3ccc(CNCCC(=O)O)cc3)no2)c(F)c1 [Example 88] yielded an EC50 of 10 nM. Compound Cc1cc(-c2nc(-c3ccc(CNCCC(=O)O)cc3)no2)ccc1-c1cccc(F)c1 [Example 74] has an EC50 of 0.12 nM. With O=C(O)[C@H]1C[C@H](NCc2ccc(-c3noc(-c4cc(-c5ccccc5)c(C(F)(F)F)s4)n3)cc2)C1 [Example 130] the EC50 was 4.5 nM. Work on O=C(O)CCNCc1ccc(-c2noc(-c3ccc(OC4CCCCC4)c(C(F)(F)F)c3)n2)cc1 [Example 45] yielded an EC50 of 1.6 nM. With O=C(O)CCNCc1ccc(-c2noc(-c3ccc(-c4ccccc4C(F)(F)F)cc3)n2)cc1 [Example 62] the EC50 was 0.4 nM. In the case of Cc1cc(-c2nc(-c3ccc(CNCCC(=O)O)cc3)no2)ccc1-c1cccc(C(F)(F)F)c1 [Example 76], the EC50 is reported as 0.35 nM. In the case of CCc1cc(-c2nc(-c3ccc(CNCCC(=O)O)cc3)no2)ccc1-c1ccccc1F [Example 108], the EC50 is reported as 0.29 nM. Compound O=C(O)C1CCC(NCc2ccc(OCc3cc(-c4ccccc4)c(C(F)(F)F)s3)cc2)CC1 (centres unmarked) [Example 9] has an EC50 of 161 nM. For O=C(O)CCNCc1ccc(-c2noc(-c3ccc(-c4ccccc4F)cc3)n2)cc1 [Example 67], the EC50 was 0.8 nM. Cc1cc(-c2nc(-c3ccc(CN[C@H]4C[C@H](C(=O)O)C4)cc3)no2)ccc1-c1ccccc1 [Example 134] gave an EC50 of 1.2 nM. For CC(C)Cc1ccc(-c2nc(-c3ccc(CN[C@@H]4CC[C@@H](C(=O)O)C4)cc3)no2)cc1 [Example 139], the EC50 was 23 nM. O=C(O)[C@@H]1CC[C@H](NCc2ccc3cnn(Cc4ccc(-c5ccccc5)cc4)c3c2)C1 [Example 35, (1R,3s)-3-N-({1-(4-phenylbenzyl)-1H-indazol-6-yl)methyl}aminocyclopentane carboxylic acid] gave an EC50 of 160 nM. O=C(O)CCNCc1ccc(-c2noc(-c3ccc(-c4ccccc4)cn3)n2)cc1 [Example 95] gave an EC50 of 25 nM. O=C(O)[C@@H]1C[C@H](NCc2ccc(OCc3cc(-c4ccccc4)c(C(F)(F)F)s3)cc2)CN1 [Example 22] gave an EC50 of 268 nM. Work on CC(C)Sc1ccc(-c2nc(-c3ccc(CNCCC(=O)O)cc3)no2)cc1 [Example 83] yielded an EC50 of 11 nM. Compound O=C(O)CCNCc1ccc(OCc2cc(-c3ccccc3)c(C(F)(F)F)s2)c(Br)c1 [Example 151] has an EC50 of 27 nM. With Cc1cc(-c2nc(-c3ccc(CNCCC(=O)O)cc3)no2)ccc1-c1ccc(C(F)(F)F)cc1 [Example 77] the EC50 was 13 nM. CC(C)/C=C/CCCCc1nc(-c2ccc(CNCCC(=O)O)cc2)no1 [Example 43] gave an EC50 of 46 nM.

— patent publication US20080200535A1, “Amine Compounds” (Asahi Kasei Pharma Corporation, priority 2006, published 2008)
